Experimental data reported in patent publication US20070190029A1, “Listeria-induced immunorecruitment and activation, and methods of use thereof” (Cerus Corporation, priority 2005, published 2007).

Experiments:
CT26 tumor cells [1] = assay: Long-term adaptive immunity: subcutaneous CT26 re-challenge, Elispot, tumor volume (FIGS. 15, 16); type: in vivo, mice
Source text: Mice were initially inoculated (t=0 days) with CT26 tumor cells by way of the hemispleen model, and then treated with:
(1) No treatment with any therapeutic agent (“naive mice”);
(2) Listeria ΔactAΔinlB (3 cycles of Listeria ΔactAΔinlB beginning at t=3 days after inoculation with the CT26 tumor cells. Administration of Listeria was once weekly for three weeks. The Listeria ΔactAΔinlB had not been engineered to express any tumor antigen;
(3) GM-CSF vaccine with Listeria ΔactAΔinlB (1 injection of Listeria ΔactAΔinlB at t=6 days). Administration of the GM-CSF vaccine was started three days after injecting the tumor cells in the hemispleen, that is, on days 3, 6, and 10; or
At t=100 days (shortly before the re-challenge) and at t=107 days (post re-challenge), surviving mice in each group were assessed for long-term immunity (Elispot assays) to the immunodominant antigen of the CT26 cells (AH1 antigen). The first Elispot assay (pre re-challenge) served as a baseline assay for use in assessing adaptive immune response. The second Elispot assay (107 days; post re-challenge) was used to assess adaptive immune response. At t=102 days, all mice were inoculated with CT26 tumor cells by way of a subcutaneous re-challenge. […]
Tumor volume was assessed in the days following the CT26 tumor cell re-challenge (FIG. 16). […] The dimensions of these tumors were measured topically.

CT26 tumor cells [2] = assay: Survival of mice with CT26 hepatic tumors (hemispleen injection model) after attenuated Listeria, with or without CTX; type: in vivo, BALB/c mice; conditions: FIG. 1D
Protocol: Hemispleen injections were as follows. BALB/c mice were anaesthetized and the spleen exposed. The spleen was divided into two hemispleens, leaving the vascular pedicles intact. Using a 27 gauge needle, about 0.1 million viable CT26 cells in 0.4 ml HBSS buffer were injected into the spleen, thus allowing cells to flow to the liver. The vascular pedicle draining the cancer-contaminated hemispleen was ligated with a clip, and the CT26-contaminated hemispleen was excised, leaving a functional hemispleen free of tumor cells.
Hepatic tumors were induced in mice as follows. CT26 tumor cells were administered to all mice on day zero (t=0 days) to initiate hepatic tumor formation.
The following concerns the number of doses of Listeria given to the mice. “1×” means that the indicated Listeria strains were administered only at t=3 days post tumor implant (only one dose). “3×” means that the indicated Listeria strains were administered at t=3 days, 6 days, and 9 days. “5×” means that the indicated Listeria strains were administered at t=3 days, 6 days, 9 days, 12 days, and 15 days. The number of administered Listeria ΔactA cells was about 1×10^7 colony forming units (CFU) while the number of Listeria ΔactAΔinlB given was about 2×10^7 CFU (FIG. 1A). […]

serum cytokines = assay: Cytokine concentrations in mouse serum after administering Listeria, poly(I:C), or CpG (Table 7); type: in vivo
Protocol: Cytokine levels were measured in serum, where the serum was from blood harvested from mice at various times after administering Listeria or a toll-like receptor (TLR) agonist. The treatment groups were (1) Salt water (HBSS) treatment only (0.2 ml); (2) L. monocytogenes ΔactAΔinlB (1×10^7 bacteria); (3) L. monocytogenes Δhly (deleted in the gene encoding listeriolysin) (3×10^8 bacteria); (4) L. monocytogenes killed but metabolically active (KBMA) (3×10^8 bacteria) (see, e.g. Brockstedt, et al. (2005) Nat. Medicine 11:853-860); (5) heat killed L. monocytogenes ΔactAΔinlB (3×10^8 bacteria); (6) poly(I:C) (0.1 mg); or (7) CpG (0.1 mg). Peripheral blood was withdrawn at various times, and assessed for cytokine concentration (Mouse Cytokine/Chemokine LINCOplex® Kit Catalog # MCYTO-70K; Linco, St. Charles, Mo.; or BD® Cytometric Bead Array, San Jose, Calif.). CpG was CpG ODN 1826, purchased through Invivogen. Cytokine levels were measured on samples withdrawn at 2, 4, 8, 12, and 24 hours after administration of bacteria or TLR agonist.
The cytokines measured included granulocyte-colony stimulating factor (G-CSF); interferon-gamma (IFN-gamma); interleukin-1alpha (IL-1alpha); interleukin-6 (IL-6); interleukin-10 (IL-10); interleukin-12p70 (IL-12p70); interleukin-13 (IL-13); IP-10; KC (mouse ortholog of IL-8); MCP-1; MIP-1α; and TNF.

## O=P1(N(CCCl)CCCl)NCCCO1 (stereo not drawn) [CTX, cyclophosphamide]
CT26 tumor cells [1]; FIG. 15, t=107 days
  Elispot response to AH1 after CT26 re-challenge: moderate
CT26 tumor cells [1]; subcutaneous re-challenge with 2×10^5 CT26 cells at t=102 days
  mice tumor free following the re-challenge: about 50%
CT26 tumor cells [2]; CTX at t=4 days, Listeria from day 5, 6 or 7
  survival (figure legend): some increase in survival
CT26 tumor cells [2]; CTX only, 50 mg/kg i.p. day 4, t=50 days
  survival: about 60%

## Poly (I:C)
Serum cytokines; 4-8 h (plateau)
  IFN-gamma concentration in mouse serum: (25-30 pg/ml)
Serum cytokines; 8-12 h (peak)
  G-CSF concentration in mouse serum: (6,000 pg/ml),
Serum cytokines; 8-12 h (plateau)
  IL-1alpha concentration in mouse serum: (170-300 pg/ml)
Serum cytokines; 2 h
  G-CSF concentration in mouse serum: to 1200 pg/ml
  IFN-gamma concentration in mouse serum: to 15 pg/ml
  IL-6 concentration in mouse serum: (7500 pg/ml)
  IL-12p70 concentration in mouse serum: 300 at 2 h pg/ml
  IP-10 concentration in mouse serum: to 1400 pg/ml
  KC concentration in mouse serum: to 900 pg/ml
  MCP-1 concentration in mouse serum: to 29,000 pg/ml
  MIP-1a concentration in mouse serum: to 1800 pg/ml
  TNF concentration in mouse serum: to 1500 pg/ml
Serum cytokines; 2 h-24 h
  IL-13 concentration in mouse serum: Basal
Serum cytokines; 4 h
  IL-6 concentration in mouse serum: (5000 pg/ml
Serum cytokines; 4 h (peak)
  IP-10 concentration in mouse serum: 4 h (2100 pg/ml),
Serum cytokines; 4 h, 12 h, 24 h
  IL-10 concentration in mouse serum: 8 h. Basal
  IL-13 concentration in mouse serum, sporadic spikes in some mice: about 200 pg/ml)
Serum cytokines; 4 h-24 h
  KC concentration in mouse serum: near basal
Serum cytokines; 8 h
  MCP-1 concentration in mouse serum: (10,000 pg/ml
Serum cytokines; 12 h
  IL-6 concentration in mouse serum: near basal
Serum cytokines; 12 h and 24 h
  MCP-1 concentration in mouse serum: (1000 pg/ml)
Serum cytokines; 24 h
  IP-10 concentration in mouse serum: drop (800 pg/ml
Serum cytokines; sporadic spikes found at 2 h and at 8 h
  IL-10 concentration in mouse serum: of 14-80 pg/ml
